These results are taken from PubChem BioAssay (NCI).

Values joined by “and” are separate entries in the source; they are usually repeats but may differ in a detail not shown here. Equal values may be shown once.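 Where inhibition never reached the appropriate level, the endpoint shown equals the highest concentration tested. Otherwise, values were interpolated linearly from a five-concentration, 48-hour dose response in 96-well plates. Here, GI50 denotes the concentration required for 50% inhibition of growth. TGI is the concentration that stops growth completely.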 Bounds are passed on as bounds.

This assay concerns MDA-MB-468 breast. In words: NCI tumour cell line growth inhibition, 48 h.
With `O=CC(Br)C(Br)c1ccccc1` (stereo unspecified), the GI50 was 1480 nM and the TGI turned out to be 3650 nM.

Consider `COc1ccc(-c2nn(-c3cccc(Cl)c3)cc2-c2c(C#N)c(=O)n3[nH]c(-c4ccc(C)cc4)nc3c2C#N)cc1`, for which the GI50 was 1050 nM and the TGI is 2880 nM.

Consider `Cc1cccc(Cl)c1NC(=O)c1cnc(Nc2cc(N3CCOCC3)cc(N3CCOCC3)c2)s1`, for which the GI50 was 326 nM and the TGI was determined as 2770 nM.

Consider `Cc1ccc(C(=O)/C(=C\c2ccc([N+](=O)[O-])cc2)S(=O)Cc2ccc(F)cc2)cc1` (stereo unspecified), for which the GI50 is 1850 nM and the TGI worked out at 3690 nM.

Turning to `COc1cc2c(cc1OC)-c1ccc3cc4c(cc3c1N(CCN(C)C)C2)OCO4`, the GI50 is 210 nM and the TGI was found to be 762 nM.

For the compound `COc1cc(C2c3cc4c(cc3OC3(OC)COC(=O)C23)OCO4)cc(OC)c1OC` (stereo unspecified), the GI50 is 616 nM and the TGI was found to be 88600 nM.

As to `COc1ccc(SC2c3ccc(C)cc3Oc3nc(N)c(C#N)c(N)c32)cc1` (stereo unspecified), the GI50 was 1790 nM and the TGI turned out to be 3600 nM.

Regarding `COc1ccc2c(c1)CCc1[nH]nc(-c3cc(OC)c(OC)c(OC)c3)c1-2`, the GI50 was under 10 nM and the TGI was under 10 nM.

As for `Cn1c(/C=C(\C#N)c2cccc(C(F)(F)F)c2)nc2c(N3CCOCC3)nc(Cl)nc21`, the GI50 is 432 nM and the TGI was found to be 1630 nM.

In the case of `CN[C@@H]1C[C@H]2O[C@@](C)([C@@H]1OC)n1c3ccccc3c3c4c(c5c6ccccc6n2c5c31)C(=O)N[C@H]4O`, the GI50 was 17.6 nM and the TGI was 105 nM.

On to `C[n+]1c2ccccc2c(Nc2ccc(NS(=O)(=O)CCCCN=C(N)N)cc2)c2ccc(N)cc21`, for which the GI50 is 989 nM and the TGI was 26100 nM.

Take `O=[N+]([O-])c1ccc2nc(/C=C(\O)c3ccccc3)c(/C=C(\O)c3ccccc3)nc2c1`: the GI50 is 4000 nM and the TGI was 61700 nM.

In the case of `COc1cc(-c2csc(NC(=O)Nc3cc(C(F)(F)F)cc(C(F)(F)F)c3)n2)cc(OC)c1OC`, the GI50 is 1330 nM and the TGI came out at 9280 nM.

`CCCOC(=O)N[C@H]1CCc2cc(OC)c(OC)c(OC)c2-c2ccc(SC)c(=O)cc21`: the GI50 was under 10 nM and the TGI turned out to be 13500 nM.

As for `CSc1n(Cc2ccc3ccccc3c2)c(C)c[n+]1Cc1ccc2ccccc2c1`, the GI50 is 211 nM and the TGI was found to be 672 nM.

Regarding `COc1ccc(-c2cn(-c3cccc(C(=O)/C=C/c4ccc(O)c(OC)c4)c3)c(=O)[nH]2)cc1`, the GI50 was 5460 nM and the TGI was over 100000 nM.

Take `COc1cc(F)cc([C@@H](CO)NC(=O)[C@@H](C)N2Cc3ccc(-c4nc(NC5CCOCC5)ncc4Cl)cc3C2=O)c1`: the GI50 was 1820 nM and the TGI was found to be 17000 nM.

For `CCO/C=N/C1=C(C#N)C(c2ccc(Cl)cc2)c2sc3c(C)cccc3c2O1` (stereo unspecified), the GI50 was 386 nM and the TGI is 14500 nM.

For `O=C(O)c1ccc2c3c(ncnc13)-c1ccccc1C2=O`, the GI50 is over 81900 nM and the TGI is over 100000 nM.

For `COc1ccc(C2=Nc3c/c(=C\c4c(O)[nH]c5ccc(Cl)cc45)ccc3=N2)cc1`, the GI50 is 1480 nM and the TGI stood at 3070 nM.

In the case of `O=C1NC(=O)C(c2ccc(Cl)cc2)=C1Nc1ccc(Cl)c(C(=O)O)c1`, the GI50 is over 25000 nM and the TGI was over 25000 nM.

In the case of `c1ccc(Nn2c(CCCCCCCCc3nnc(COc4ccccc4)n3Nc3ccccc3)nnc2COc2ccccc2)cc1`, the GI50 is 12800 nM and 61600 nM; the TGI is over 300000 nM.

Turning to `Cn1cc(-c2nc(-c3c[nH]c4ccncc34)cs2)c2cc(F)ccc21`, the GI50 is 1400 nM and the TGI came out at 2890 nM.

For `Cc1cc(Nc2ccc(F)cc2)nc(N2CCN(c3ccnc4cc(Cl)ccc34)CC2)n1`, the GI50 was 2720 nM and the TGI was over 100000 nM.

Take `CCN(CC)CCCC(C)Nc1c2ccc(Cl)cc2nc2cc(OC)c(OC)cc12` (stereo unspecified): the GI50 was 1300 nM and the TGI was found to be 2830 nM.

As for `CCCC(=O)NC(c1cccnc1)c1cc(C(C)(C)C)c2cccnc2c1O` (stereo unspecified), the GI50 is 2310 nM and the TGI amounted to 8980 nM.

For `Nc1nc2ccc3[nH]ncc3c2c2c1CCCC2`, the GI50 is 1460 nM and the TGI was determined as 2920 nM.

Take `COc1ccc([I+]c2ccccc2)cc1`: the GI50 was 253 nM and the TGI is over 36600 nM.

As for `CC(C)(C)NCCC(O)c1cc2c(Cl)cc(Cl)cc2c2cc(C(F)(F)F)ccc12` (stereo unspecified), the GI50 is 1590 nM and the TGI was found to be 3060 nM.

With `Oc1ccc2ccccc2c1C1NN=C(c2ccccc2)S1` (stereo unspecified), the GI50 is 536 nM and the TGI came out at 3940 nM.

Take `COc1ccc2c(c1)c1nc3cc(C)c(C)cc3nc1n2CCN(C)C`: the GI50 is 761 nM and the TGI came out at 2450 nM.

In the case of `Cc1cc([N+](=O)[O-])ccc1NS(=O)(=O)c1cc(Cl)ccc1Cl`, the GI50 is 1660 nM and the TGI turned out to be 7610 nM.

On to `COc1ccc2c3c(c4ccccc4cc13)C(=O)N(CCN(C)CCN)C2=O`, for which the GI50 is 289 nM and the TGI turned out to be 1160 nM.

As to `O=C(NCCN1CCC(O)CC1)c1cc2c(o1)C(=O)c1ccccc1C2=O`, the GI50 was 202 nM and the TGI worked out at 559 nM.

Turning to `c1cncc(-c2nc3ccccc3s2)c1`, the GI50 was over 100000 nM and the TGI was over 100000 nM.

As to `CCOc1ccc2nc(-c3cccc(OCC(=O)NC(C)C)c3)nc(Nc3ccc(-c4cn[nH]c4)cc3)c2c1`, the GI50 was 2310 nM and the TGI came to 14900 nM.

With `O=C(O)c1ccc([S-])cc1.[Au+].c1ccc(CN2[CH-]N(Cc3ccccc3)C(c3ccccc3)=C2c2ccccc2)cc1`, the GI50 was 188 nM and the TGI turned out to be 873 nM.

On to `CN1CCC(C(=O)Nc2n[nH]c3nc(-c4ccc(O)cc4)c(Br)cc23)CC1`, for which the GI50 was 486 nM and 779 nM; the TGI is 1410 nM and 2830 nM.

Turning to `CCCCOC(=O)c1ccc(NC(=O)CCl)cc1`, the GI50 is 1780 nM and the TGI is 4080 nM.

On to `CC1(C)N=C(N)N=C(N)N1c1ccc(CCc2ccc(Cl)cc2S(=O)(=O)F)c(Cl)c1`, for which the GI50 is 3590 nM and the TGI was 24200 nM.

Turning to `CN1C(=O)C(=Cc2cn(Cc3ccccc3)c3ccccc23)C(=O)N(C)C1=O`, the GI50 was 63.9 nM and the TGI worked out at 158 nM.

For the compound `N#Cc1ccc(C2C3=C(CCCC3=O)OC3=C2C(=O)c2ccccc2C3=O)cc1` (stereo unspecified), the GI50 is 309 nM and the TGI was determined as 867 nM.

As for `COc1ccc(/C(=N\NC(N)=S)c2ccc(Cl)cc2)cc1OC`, the GI50 is 1910 nM and the TGI is 7990 nM.
